Usually solubility stands for how much of the substance goes into solution per volume.

The source of these data is patent publication US7563623B2, “Biosensor” (FUJIFILM Corporation, priority 2006, dated 2009).

The nature of the series: Solubility of SAM compounds in water, visual observation after standing at 25° C. for one day. Format: physicochemical. Conditions: for water solubility (summary in words): conclusion from Table 1; for solubility at 1 day: water, 25 °C, thermodynamic from solid, 25° C., one day, visual observation, read-out: Solubility (solvent (H2O) allowed to stand at 25° C. for one day). As to the method:
The mixtures were allowed to stand at 25° C. for one day, followed by observation. […] The symbol “x” indicates a resultant in which precipitation and sedimentation were observed, the symbol “Δ” indicates a resultant in which opacity was observed, and the symbol “◯” indicates a resultant having an achromatic and transparent color. • 16-Hydroxy-1-hexadecanethiol (Frontier Scientific) • 11-Hydroxy-1-undecanethiol (Aldrich) • 8-Hydroxy-1-octanethiol (Aldrich) • 6-Hydroxy-1-hexanethiol (Aldrich) • 11-Amino-1-undecanethiol, hydrochloride (Dojindo Laboratories) • 8-Amino-1-octanethiol, hydrochloride (Dojindo Laboratories) • 6-Amino-1-hexanethiol, hydrochloride (Dojindo Laboratories)

Where two headings read alike, the source gives them in different places.

With `Cl.NCCCCCCS` [6-Amino-1-hexanethiol, hydrochloride], the “water solubility (summary in words)” value is listed as “good water solubility”. In addition, the solubility at 1 day (SAM concentration 0.1 mM) was over 0.1 mM. For the same compound, the solubility at 1 day (SAM concentration 1 mM) is over 1 mM. For the same compound, the solubility at 1 day (SAM concentration 5 mM) was over 5 mM. The solubility at 1 day (SAM concentration 20 mM) is over 20 mM.
The corresponding values for `OCCCCCCS` [6-Hydroxy-1-hexanethiol] are “good water solubility”, over 0.1 mM, over 1 mM, over 5 mM and under 20 mM.
For `Cl.NCCCCCCCCS` [8-Amino-1-octanethiol, hydrochloride], in that order: “good water solubility”, over 0.1 mM, over 1 mM, over 5 mM and over 20 mM.
For `OCCCCCCCCS` [8-Hydroxy-1-octanethiol], in that order: “good water solubility”, over 0.1 mM, over 1 mM, under 5 mM and under 20 mM.
Take `Cl.NCCCCCCCCCCCS` [11-Amino-1-undecanethiol, hydrochloride]: the solubility at 1 day is, setting by setting: (SAM concentration 1 mM) under 1 mM; (SAM concentration 5 mM) under 5 mM; (SAM concentration 20 mM) under 20 mM.
For `OCCCCCCCCCCCS` [11-Hydroxy-1-undecanethiol], the solubility at 1 day is, setting by setting: (SAM concentration 0.1 mM) under 0.1 mM; (SAM concentration 1 mM) under 1 mM; (SAM concentration 5 mM) under 5 mM; (SAM concentration 20 mM) under 20 mM.
In the case of `OCCCCCCCCCCCCCCCCS` [16-Hydroxy-1-hexadecanethiol], the solubility at 1 day reads like this: (SAM concentration 0.1 mM) under 0.1 mM; (SAM concentration 1 mM) under 1 mM; (SAM concentration 5 mM) under 5 mM; (SAM concentration 20 mM) under 20 mM.
